Test results: paper PMC4767141, “Discovery of Potent, Orally Bioavailable, Small-Molecule Inhibitors of WNT Signaling from a Cell-Based Pathway Screen” (Journal of Medicinal Chemistry, 2015)

What was measured:
β1 (h) = biological target: T1, β1 (h) (Homo sapiens, UniProt P08588); assay: CEREP binding panel; conditions: agonist radioligand, read-out: % Inhibition of Control Specific Binding
T1 construct: purchased Millipore KinaseProfiler (kinases); Cerep (receptors and ion channels)

D2S (h) = biological target: T2, D2S (h) (Homo sapiens, UniProt P14416); assay: CEREP binding panel; conditions: antagonist radioligand, read-out: % Inhibition of Control Specific Binding
T2 construct: purchased Millipore KinaseProfiler (kinases); Cerep (receptors and ion channels)

H1 (h) = biological target: T3, H1 (h) (Homo sapiens, UniProt P35367); assay: CEREP binding panel; conditions: antagonist radioligand, read-out: % Inhibition of Control Specific Binding
T3 construct: purchased Millipore KinaseProfiler (kinases); Cerep (receptors and ion channels)

MC4 (h) = biological target: T4, MC4 (h) (Homo sapiens, UniProt P32245); assay: CEREP binding panel; conditions: agonist radioligand, read-out: % Inhibition of Control Specific Binding
T4 construct: purchased Millipore KinaseProfiler (kinases); Cerep (receptors and ion channels)

NTS1 (NT1) (h) = biological target: T5, NTS1 (NT1) (h) (Homo sapiens, UniProt P30989); assay: CEREP binding panel; conditions: agonist radioligand, read-out: % Inhibition of Control Specific Binding
T5 construct: purchased Millipore KinaseProfiler (kinases); Cerep (receptors and ion channels)

μ (MOP) (h) = biological target: T6, μ (MOP) (h) (Homo sapiens, UniProt P35372); assay: CEREP binding panel; conditions: agonist radioligand, read-out: % Inhibition of Control Specific Binding
T6 construct: purchased Millipore KinaseProfiler (kinases); Cerep (receptors and ion channels)

5-HT1B = biological target: T7, 5-HT1B (Rattus norvegicus, UniProt P28564); assay: CEREP binding panel; conditions: antagonist radioligand, read-out: % Inhibition of Control Specific Binding
T7 construct: purchased Millipore KinaseProfiler (kinases); Cerep (receptors and ion channels)
T7 sequence (P28564 whole entry): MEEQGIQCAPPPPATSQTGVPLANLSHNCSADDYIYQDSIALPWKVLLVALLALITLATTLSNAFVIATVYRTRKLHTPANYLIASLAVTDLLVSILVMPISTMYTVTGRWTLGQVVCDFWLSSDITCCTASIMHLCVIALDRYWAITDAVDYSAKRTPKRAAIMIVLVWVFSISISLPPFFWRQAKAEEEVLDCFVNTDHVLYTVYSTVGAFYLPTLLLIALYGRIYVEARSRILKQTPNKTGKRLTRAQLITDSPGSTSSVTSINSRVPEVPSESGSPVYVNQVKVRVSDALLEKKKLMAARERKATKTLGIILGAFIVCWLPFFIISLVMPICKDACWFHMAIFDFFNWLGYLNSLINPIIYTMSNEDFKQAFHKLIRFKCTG

5-HT6 (h) = biological target: T8, 5-HT6 (h) (Homo sapiens, UniProt P50406); assay: CEREP binding panel; conditions: agonist radioligand, read-out: % Inhibition of Control Specific Binding
T8 construct: purchased Millipore KinaseProfiler (kinases); Cerep (receptors and ion channels)

sst (non-selective) = assay: CEREP binding panel; conditions: 10 μM, agonist radioligand
BRK = biological target: T9, BRK (Homo sapiens, UniProt Q13882); assay: Millipore kinase panel; format: biochemical; conditions: read-out: % Control
T9 construct: purchased Millipore KinaseProfiler (kinases); Cerep (receptors and ion channels)
T9 sequence (Q13882 whole entry): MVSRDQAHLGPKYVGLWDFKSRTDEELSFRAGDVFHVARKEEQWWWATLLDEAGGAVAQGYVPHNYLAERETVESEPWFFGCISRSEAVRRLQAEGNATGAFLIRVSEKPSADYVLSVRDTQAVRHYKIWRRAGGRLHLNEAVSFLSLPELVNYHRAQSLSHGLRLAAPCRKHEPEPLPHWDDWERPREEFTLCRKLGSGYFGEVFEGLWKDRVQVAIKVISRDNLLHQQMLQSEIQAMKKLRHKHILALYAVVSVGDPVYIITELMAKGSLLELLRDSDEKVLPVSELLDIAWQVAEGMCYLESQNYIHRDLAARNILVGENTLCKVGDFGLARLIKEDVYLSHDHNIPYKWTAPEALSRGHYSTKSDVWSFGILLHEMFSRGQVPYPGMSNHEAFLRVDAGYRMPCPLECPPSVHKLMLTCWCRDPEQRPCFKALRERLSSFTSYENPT

CAMKI = biological target: T10, CAMKI (Homo sapiens, UniProt Q14012); assay: Millipore kinase panel; format: biochemical; conditions: read-out: % Control
T10 construct: purchased Millipore KinaseProfiler (kinases); Cerep (receptors and ion channels)

CAMKIV = biological target: T11, CAMKIV (Homo sapiens, UniProt Q16566); assay: Millipore kinase panel; format: biochemical; conditions: read-out: % Control
T11 construct: purchased Millipore KinaseProfiler (kinases); Cerep (receptors and ion channels)
T11 sequence (Q16566 whole entry): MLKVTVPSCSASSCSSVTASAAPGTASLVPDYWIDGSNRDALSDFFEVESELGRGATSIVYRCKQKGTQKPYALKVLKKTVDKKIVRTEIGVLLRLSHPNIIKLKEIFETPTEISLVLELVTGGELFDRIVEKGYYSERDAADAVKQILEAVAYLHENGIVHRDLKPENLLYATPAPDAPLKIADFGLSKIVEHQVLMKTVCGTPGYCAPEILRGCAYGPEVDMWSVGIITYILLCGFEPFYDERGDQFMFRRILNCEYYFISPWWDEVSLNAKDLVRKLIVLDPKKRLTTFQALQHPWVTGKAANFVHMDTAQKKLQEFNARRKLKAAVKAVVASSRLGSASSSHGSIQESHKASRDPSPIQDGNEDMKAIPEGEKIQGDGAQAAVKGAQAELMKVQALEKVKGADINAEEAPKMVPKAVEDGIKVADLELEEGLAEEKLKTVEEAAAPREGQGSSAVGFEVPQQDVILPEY

CDK5/P25 = biological target: T12, CDK5/P25 (Homo sapiens, UniProt Q00535); assay: Millipore kinase panel; format: biochemical; conditions: read-out: % Control
T12 construct: purchased Millipore KinaseProfiler (kinases); Cerep (receptors and ion channels)

CDK7/CYCLINH/MAT1 = biological target: T13, CDK7/CYCLINH/MAT1 (Homo sapiens, UniProt P50613); assay: Millipore kinase panel; format: biochemical; conditions: read-out: % Control
T13 construct: purchased Millipore KinaseProfiler (kinases); Cerep (receptors and ion channels)

CK2 = biological target: T14, CK2 (Homo sapiens, UniProt P68400); assay: Millipore kinase panel; format: biochemical; conditions: read-out: % Control
T14 construct: purchased Millipore KinaseProfiler (kinases); Cerep (receptors and ion channels)
T14 sequence (P68400 whole entry): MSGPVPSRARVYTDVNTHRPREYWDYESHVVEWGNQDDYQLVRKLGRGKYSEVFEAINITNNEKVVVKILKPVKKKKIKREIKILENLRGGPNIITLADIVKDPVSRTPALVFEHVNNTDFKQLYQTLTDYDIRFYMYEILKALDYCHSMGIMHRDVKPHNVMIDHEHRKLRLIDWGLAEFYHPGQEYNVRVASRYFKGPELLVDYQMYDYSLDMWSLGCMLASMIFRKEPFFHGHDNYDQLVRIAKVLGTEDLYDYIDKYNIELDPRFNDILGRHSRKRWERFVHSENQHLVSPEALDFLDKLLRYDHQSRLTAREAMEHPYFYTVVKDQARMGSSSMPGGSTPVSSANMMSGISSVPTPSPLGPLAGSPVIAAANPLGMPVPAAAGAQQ
T14 sequence (P67870 whole entry partner): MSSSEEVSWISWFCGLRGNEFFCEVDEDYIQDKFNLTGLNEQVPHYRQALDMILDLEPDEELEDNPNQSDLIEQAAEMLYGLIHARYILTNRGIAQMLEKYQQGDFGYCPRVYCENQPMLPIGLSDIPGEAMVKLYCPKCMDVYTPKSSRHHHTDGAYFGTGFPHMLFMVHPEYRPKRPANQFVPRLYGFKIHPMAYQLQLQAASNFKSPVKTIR

CSK = biological target: T15, CSK (Homo sapiens, UniProt P41240); assay: Millipore kinase panel; format: biochemical; conditions: read-out: % Control
T15 construct: purchased Millipore KinaseProfiler (kinases); Cerep (receptors and ion channels)

DMPK = biological target: T16, DMPK (Homo sapiens, UniProt Q09013); assay: Millipore kinase panel; format: biochemical; conditions: read-out: % Control
T16 construct: purchased Millipore KinaseProfiler (kinases); Cerep (receptors and ion channels)

EPHA2 = biological target: T17, EPHA2 (Homo sapiens, UniProt P29317); assay: Millipore kinase panel; format: biochemical; conditions: read-out: % Control
T17 construct: purchased Millipore KinaseProfiler (kinases); Cerep (receptors and ion channels)

HIPK2 = biological target: T18, HIPK2 (Homo sapiens, UniProt Q9H2X6); assay: Millipore kinase panel; format: biochemical; conditions: read-out: % Control
T18 construct: purchased Millipore KinaseProfiler (kinases); Cerep (receptors and ion channels)
T18 sequence (Q9H2X6 whole entry): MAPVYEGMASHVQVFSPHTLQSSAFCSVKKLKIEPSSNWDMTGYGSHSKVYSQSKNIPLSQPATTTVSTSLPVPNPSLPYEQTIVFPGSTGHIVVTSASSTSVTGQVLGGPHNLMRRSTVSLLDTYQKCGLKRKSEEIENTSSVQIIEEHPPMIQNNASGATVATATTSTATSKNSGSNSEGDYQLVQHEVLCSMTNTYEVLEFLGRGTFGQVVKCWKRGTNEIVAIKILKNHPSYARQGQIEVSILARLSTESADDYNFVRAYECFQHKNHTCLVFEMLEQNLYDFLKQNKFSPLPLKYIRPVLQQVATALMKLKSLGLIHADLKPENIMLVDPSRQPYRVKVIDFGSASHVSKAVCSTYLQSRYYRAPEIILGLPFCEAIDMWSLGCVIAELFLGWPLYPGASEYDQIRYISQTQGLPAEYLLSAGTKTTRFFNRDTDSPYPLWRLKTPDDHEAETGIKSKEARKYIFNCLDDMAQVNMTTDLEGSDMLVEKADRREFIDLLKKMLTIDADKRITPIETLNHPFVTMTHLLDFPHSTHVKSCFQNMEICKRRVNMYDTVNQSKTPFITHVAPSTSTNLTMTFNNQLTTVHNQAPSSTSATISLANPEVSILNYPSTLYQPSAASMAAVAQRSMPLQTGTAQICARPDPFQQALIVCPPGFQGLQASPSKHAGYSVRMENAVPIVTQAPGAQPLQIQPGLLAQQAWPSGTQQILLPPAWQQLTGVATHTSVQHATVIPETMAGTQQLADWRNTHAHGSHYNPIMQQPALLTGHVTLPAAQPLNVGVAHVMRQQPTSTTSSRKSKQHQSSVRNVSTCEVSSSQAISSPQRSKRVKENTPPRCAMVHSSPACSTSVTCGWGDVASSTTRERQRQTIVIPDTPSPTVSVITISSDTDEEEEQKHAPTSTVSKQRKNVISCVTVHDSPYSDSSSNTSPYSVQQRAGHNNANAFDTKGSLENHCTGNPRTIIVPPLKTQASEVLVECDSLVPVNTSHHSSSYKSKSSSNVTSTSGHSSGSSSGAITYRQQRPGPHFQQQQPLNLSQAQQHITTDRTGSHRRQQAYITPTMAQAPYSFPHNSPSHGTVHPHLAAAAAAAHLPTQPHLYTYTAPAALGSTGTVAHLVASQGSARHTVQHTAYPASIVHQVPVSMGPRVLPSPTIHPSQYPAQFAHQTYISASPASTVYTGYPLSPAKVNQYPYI

HIPK3 = biological target: T19, HIPK3 (Homo sapiens, UniProt Q9H422); assay: Millipore kinase panel; format: biochemical; conditions: read-out: % Control
T19 construct: purchased Millipore KinaseProfiler (kinases); Cerep (receptors and ion channels)

KDR = biological target: T20, KDR (Homo sapiens, UniProt P35968); assay: Millipore kinase panel; format: biochemical; conditions: read-out: % Control
T20 construct: purchased Millipore KinaseProfiler (kinases); Cerep (receptors and ion channels)

LKB1 = biological target: T21, LKB1 (Homo sapiens, UniProt Q15831); assay: Millipore kinase panel; format: biochemical; conditions: read-out: % Control
T21 construct: purchased Millipore KinaseProfiler (kinases); Cerep (receptors and ion channels)

MARK1 = biological target: T22, MARK1 (Homo sapiens, UniProt Q9P0L2); assay: Millipore kinase panel; format: biochemical; conditions: read-out: % Control
T22 construct: purchased Millipore KinaseProfiler (kinases); Cerep (receptors and ion channels)

MEK1 = biological target: T23, MEK1 (Homo sapiens, UniProt Q02750); assay: Millipore kinase panel; format: biochemical; conditions: read-out: % Control
T23 construct: purchased Millipore KinaseProfiler (kinases); Cerep (receptors and ion channels)

MINK = biological target: T24, MINK (Homo sapiens, UniProt Q8N4C8); assay: Millipore kinase panel; format: biochemical; conditions: read-out: % Control
T24 construct: purchased Millipore KinaseProfiler (kinases); Cerep (receptors and ion channels)

MST2 = biological target: T25, MST2 (Homo sapiens, UniProt Q13188); assay: Millipore kinase panel; format: biochemical; conditions: read-out: % Control
T25 construct: purchased Millipore KinaseProfiler (kinases); Cerep (receptors and ion channels)
T25 sequence (Q13188 whole entry): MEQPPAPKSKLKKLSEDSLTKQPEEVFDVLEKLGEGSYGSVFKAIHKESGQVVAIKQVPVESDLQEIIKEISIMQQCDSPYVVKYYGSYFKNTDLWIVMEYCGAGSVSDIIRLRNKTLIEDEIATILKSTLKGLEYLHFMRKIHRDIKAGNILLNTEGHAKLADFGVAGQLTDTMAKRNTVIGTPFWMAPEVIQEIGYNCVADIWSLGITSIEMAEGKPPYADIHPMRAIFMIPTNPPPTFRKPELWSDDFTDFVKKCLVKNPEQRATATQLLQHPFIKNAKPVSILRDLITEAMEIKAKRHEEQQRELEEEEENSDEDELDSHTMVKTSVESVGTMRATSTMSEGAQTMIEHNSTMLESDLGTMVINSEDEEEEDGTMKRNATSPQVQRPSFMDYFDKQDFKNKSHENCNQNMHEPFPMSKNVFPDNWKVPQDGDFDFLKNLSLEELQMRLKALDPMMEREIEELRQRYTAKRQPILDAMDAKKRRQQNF

NEK6 = biological target: T26, NEK6 (Homo sapiens, UniProt Q9HC98); assay: Millipore kinase panel; format: biochemical; conditions: read-out: % Control
T26 construct: purchased Millipore KinaseProfiler (kinases); Cerep (receptors and ion channels)

NEK7 = biological target: T27, NEK7 (Homo sapiens, UniProt Q8TDX7); assay: Millipore kinase panel; format: biochemical; conditions: read-out: % Control
T27 construct: purchased Millipore KinaseProfiler (kinases); Cerep (receptors and ion channels)

PAR-1BALPHA = biological target: T28, PAR-1BALPHA (Homo sapiens, UniProt Q7KZI7); assay: Millipore kinase panel; format: biochemical; conditions: read-out: % Control
T28 construct: purchased Millipore KinaseProfiler (kinases); Cerep (receptors and ion channels)
T28 sequence (Q7KZI7 whole entry): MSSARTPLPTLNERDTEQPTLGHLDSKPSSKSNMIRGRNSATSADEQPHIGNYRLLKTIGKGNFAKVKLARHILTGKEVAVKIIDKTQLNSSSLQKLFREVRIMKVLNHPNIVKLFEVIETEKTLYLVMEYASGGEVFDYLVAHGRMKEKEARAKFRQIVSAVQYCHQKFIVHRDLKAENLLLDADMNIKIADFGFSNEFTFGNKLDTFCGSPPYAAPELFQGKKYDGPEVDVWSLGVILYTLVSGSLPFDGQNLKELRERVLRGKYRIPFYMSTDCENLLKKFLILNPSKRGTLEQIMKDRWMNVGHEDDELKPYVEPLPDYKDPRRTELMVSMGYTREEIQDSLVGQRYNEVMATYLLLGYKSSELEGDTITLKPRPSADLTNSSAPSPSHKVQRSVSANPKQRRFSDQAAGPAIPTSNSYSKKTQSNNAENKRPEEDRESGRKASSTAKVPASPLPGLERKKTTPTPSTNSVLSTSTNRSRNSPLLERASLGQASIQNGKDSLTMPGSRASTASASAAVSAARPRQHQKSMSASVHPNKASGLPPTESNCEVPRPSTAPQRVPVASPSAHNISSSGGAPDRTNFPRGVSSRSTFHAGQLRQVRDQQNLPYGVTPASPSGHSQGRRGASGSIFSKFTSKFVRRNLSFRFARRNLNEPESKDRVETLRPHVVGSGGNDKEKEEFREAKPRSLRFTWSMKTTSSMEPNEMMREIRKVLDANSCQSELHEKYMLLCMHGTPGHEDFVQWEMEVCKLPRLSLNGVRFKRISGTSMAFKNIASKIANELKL

PKG1ALPHA = biological target: T29, PKG1ALPHA (Homo sapiens, UniProt Q13976); assay: Millipore kinase panel; format: biochemical; conditions: read-out: % Control
T29 construct: purchased Millipore KinaseProfiler (kinases); Cerep (receptors and ion channels)

PYK2 = biological target: T30, PYK2 (Homo sapiens, UniProt Q14289); assay: Millipore kinase panel; format: biochemical; conditions: read-out: % Control
T30 construct: purchased Millipore KinaseProfiler (kinases); Cerep (receptors and ion channels)

CRAF = biological target: T31, CRAF (Homo sapiens, UniProt P04049); assay: Millipore kinase panel; format: biochemical; conditions: read-out: % Control
T31 construct: purchased Millipore KinaseProfiler (kinases); Cerep (receptors and ion channels)

SGK = biological target: T32, SGK (Homo sapiens, UniProt O00141); assay: Millipore kinase panel; format: biochemical; conditions: read-out: % Control
T32 construct: purchased Millipore KinaseProfiler (kinases); Cerep (receptors and ion channels)

SRC = biological target: T33, SRC (Homo sapiens, UniProt P12931); assay: Millipore kinase panel; format: biochemical; conditions: read-out: % Control
T33 construct: purchased Millipore KinaseProfiler (kinases); Cerep (receptors and ion channels)
T33 sequence (P12931 whole entry): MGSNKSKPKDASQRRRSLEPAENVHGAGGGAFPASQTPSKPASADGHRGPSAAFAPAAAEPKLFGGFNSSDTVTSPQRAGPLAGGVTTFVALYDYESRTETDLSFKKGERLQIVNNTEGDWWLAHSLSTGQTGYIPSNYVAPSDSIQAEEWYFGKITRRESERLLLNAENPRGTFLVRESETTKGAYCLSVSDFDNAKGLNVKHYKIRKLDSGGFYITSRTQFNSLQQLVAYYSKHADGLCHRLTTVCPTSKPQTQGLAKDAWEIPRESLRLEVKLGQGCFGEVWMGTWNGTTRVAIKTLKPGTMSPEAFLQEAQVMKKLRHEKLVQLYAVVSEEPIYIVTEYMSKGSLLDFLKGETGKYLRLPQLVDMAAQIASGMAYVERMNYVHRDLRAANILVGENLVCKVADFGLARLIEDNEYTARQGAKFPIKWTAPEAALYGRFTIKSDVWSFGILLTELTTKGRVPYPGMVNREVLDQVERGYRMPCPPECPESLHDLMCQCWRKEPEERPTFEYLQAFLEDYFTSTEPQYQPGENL

WNK2 = biological target: T34, WNK2 (Homo sapiens, UniProt Q9Y3S1); assay: Millipore kinase panel; format: biochemical; conditions: read-out: % Control
T34 construct: purchased Millipore KinaseProfiler (kinases); Cerep (receptors and ion channels)

CAMKIIBETA = biological target: T35, CAMKIIBETA (Homo sapiens, UniProt Q13554); assay: Millipore kinase panel; format: biochemical; conditions: read-out: % Control
T35 construct: purchased Millipore KinaseProfiler (kinases); Cerep (receptors and ion channels)

VRK2 = biological target: T36, VRK2 (Homo sapiens, UniProt Q86Y07); assay: Millipore kinase panel; format: biochemical; conditions: read-out: % Control
T36 construct: purchased Millipore KinaseProfiler (kinases); Cerep (receptors and ion channels)

CLK2 = biological target: T37, CLK2 (Homo sapiens, UniProt P49760); assay: Millipore kinase panel; format: biochemical; conditions: read-out: % Control
T37 construct: purchased Millipore KinaseProfiler (kinases); Cerep (receptors and ion channels)

TXK = biological target: T38, TXK (Homo sapiens, UniProt P42681); assay: Millipore kinase panel; format: biochemical; conditions: read-out: % Control
T38 construct: purchased Millipore KinaseProfiler (kinases); Cerep (receptors and ion channels)

PLK1 = biological target: T39, PLK1 (Homo sapiens, UniProt P53350); assay: Millipore kinase panel; format: biochemical; conditions: read-out: % Control
T39 construct: purchased Millipore KinaseProfiler (kinases); Cerep (receptors and ion channels)

TEC ACTIVATED = biological target: T40, TEC ACTIVATED (Homo sapiens, UniProt P42680); assay: Millipore kinase panel; format: biochemical; conditions: read-out: % Control
T40 construct: purchased Millipore KinaseProfiler (kinases); Cerep (receptors and ion channels)

IR, ACTIVATED = biological target: T41, IR, ACTIVATED (Homo sapiens, UniProt P06213); assay: Millipore kinase panel; format: biochemical; conditions: read-out: % Control
T41 construct: purchased Millipore KinaseProfiler (kinases); Cerep (receptors and ion channels)

PRKAA1 = biological target: T42, PRKAA1 (Homo sapiens, UniProt Q13131); assay: Millipore kinase panel; format: biochemical; conditions: read-out: % Control
T42 construct: purchased Millipore KinaseProfiler (kinases); Cerep (receptors and ion channels)

O=C1NCCC12CCN(c1c(Cl)cncc1-c1ccc(N3CCOCC3)cc1)CC2 [Compound 44, 8-(3-Chloro-5-(4-morpholin-4-ylphenyl)pyridin-4-yl)-2,8-diazaspiro[4.5]decan-1-one]
inhibition at 10 µM (β1 (h)): 9% | inhibition at 10 µM (D2S (h)): 9% | inhibition at 10 µM (H1 (h)): -5% | inhibition at 10 µM (MC4 (h)): 10% | inhibition at 10 µM (NTS1 (NT1) (h)): -4% | inhibition at 10 µM (μ (MOP) (h)): 9% | inhibition at 10 µM (5-HT1B): -29% | inhibition at 10 µM (5-HT6 (h)): -5% | % Inhibition of Control Specific Binding (sst (non-selective)): -16% | remaining activity at 1 µM (BRK): 2% | remaining activity at 1 µM (CAMKI): -4% | remaining activity at 1 µM (CAMKIV): -8% | remaining activity at 1 µM (CDK5/P25): 0% | remaining activity at 1 µM (CDK7/CYCLINH/MAT1): -10% | remaining activity at 1 µM (CK2): 12% | remaining activity at 1 µM (CSK): -1% | remaining activity at 1 µM (DMPK): -7% | remaining activity at 1 µM (EPHA2): 10% | remaining activity at 1 µM (HIPK2): 2% | remaining activity at 1 µM (HIPK3): 7% | remaining activity at 1 µM (KDR): 21% | remaining activity at 1 µM (LKB1): 7% | remaining activity at 1 µM (MARK1): 4% | remaining activity at 1 µM (MEK1): -3% | remaining activity at 1 µM (MINK): 7% | remaining activity at 1 µM (MST2): 1% | remaining activity at 1 µM (NEK6): -4% | remaining activity at 1 µM (NEK7): -7% | remaining activity at 1 µM (PAR-1BALPHA): -6% | remaining activity at 1 µM (PKG1ALPHA): 8% | remaining activity at 1 µM (PYK2): -6% | remaining activity at 1 µM (CRAF): -1% | remaining activity at 1 µM (SGK): 16% | remaining activity at 1 µM (SRC): 4% | remaining activity at 1 µM (WNK2): -4% | remaining activity at 1 µM (CAMKIIBETA): 0% | remaining activity at 1 µM (VRK2): -5% | remaining activity at 1 µM (CLK2): -10% | remaining activity at 1 µM (TXK): 4% | remaining activity at 1 µM (PLK1): 14% | remaining activity at 1 µM (TEC ACTIVATED): 4% | remaining activity at 1 µM (IR, ACTIVATED): 17% | remaining activity at 1 µM (PRKAA1): 15%
